ChEMBL document CHEMBL5375966, “Exploiting the "Hot-Spots" of Hsp70-Bim Protein-Protein Interaction to Optimize the 1-Oxo-1H-phenalene-2,3-dicarbonitrile Analogues as Specific Hsp70-Bim Inhibitors” (J Med Chem, 2023)
Active and inactive are the calls of the source. The rule behind the calls is not given here.

Tests used:
BaF3 = test: Induction of apoptosis in mouse BaF3 cells assessed as apoptotic rate at 15 uM incubated for 24 hrs by annexin V/PI staining based flow cytometry analysis relative to control; type: toxicity, cell-based; conditions: baf3, 24 h
[1] = Inhibition of Bim (unknown origin)- N-terminal 6His-tagged human recombinant HSP70 NBD (1 to 383 residues) expressed in Escherichia coli BL21 (DE3) protein protein interaction assessed as suppression of BimBH3-stimulated HSP70 ATPase activity
[2] = Inhibition of Fam-labeled BimBH3 peptide binding to N-terminal 6His-tagged human recombinant HSP70 NBD (1 to 383 residues) expressed in Escherichia coli BL21 (DE3) assessed as inhibition constant incubated for 24 hrs by fluorescence polarization assay
[3] = Induction of apoptosis in human Imatinib-resistant K562-R3 cells incubated for 24 hrs by annexin V/PI staining based flow cytometry analysis; type: functional; conditions: Imatinib-resistant K562-R3 cell
BV-173 = test: Induction of apoptosis in human BV-173 cells incubated for 24 hrs by annexin V/PI staining based flow cytometry analysis; type: functional, cell-based; conditions: BV-173, 24 h
HEK293 = test: Induction of apoptosis in human HEK293 cells assessed as apoptotic rate at 15 uM incubated for 24 hrs by annexin V/PI staining based flow cytometry analysis relative to control; type: toxicity, cell-based; conditions: hek293, 24 h
K562 [4] = test: Induction of apoptosis in human K562 cells incubated for 24 hrs by annexin V/PI staining based flow cytometry analysis; type: functional, cell-based; conditions: K562, 24 h
K562 [5] = test: Inhibition of HSP70-Bag3 protein protein interaction in human K562 cells at 10 uM incubated for 12 hrs by Co-IP analysis; type: cell-based
Homo sapiens = species on record: Homo sapiens; test: Inhibition of N-terminal 6His-tagged human recombinant HSP70 NBD (1 to 383 residues) expressed in Escherichia coli BL21 (DE3) ATPase activity
[6] = Induction of apoptosis in mouse BaF3 cells incubated for 24 hrs by annexin V/PI staining based flow cytometry analysis; type: toxicity, cell-based
[7] = Induction of apoptosis in human HEK293 cells incubated for 24 hrs by annexin V/PI staining based flow cytometry analysis; type: toxicity, cell-based

Row | Compound | inhibition [1] | Ki [2] [µM] | also measured
1 | COC(=O)CCNC1=C(C#N)C(=O)c2cccc3c(Sc4ccc(Br)cc4)ccc1c23 | Active | 2.5 | 
2 | CCN(CC)CCNC1=C(C#N)C(=O)c2cccc3c(SC4CCCC4)ccc1c23 | Active | 0.32 | 
3 | CCn1c(=O)/c(=C2\Sc3ccccc3N2C)s/c1=C\c1cccc[n+]1CC |  |  | inhibition (K562 [5]): Active
4 | N#Cc1ccc(COC[C@H]2O[C@@H](n3c(NCc4ccc(Cl)c(Cl)c4)nc4c(N)ncnc43)[C@H](O)[C@@H]2O)cc1 |  | > 20 | inhibition (Homo sapiens): Active; EC50 at 24 h [6]: 5.5 µM; EC50 at 24 h [7]: 7.7 µM; EC50 [3]: 8.5 µM; EC50 (BV-173): 5.8 µM; EC50 (K562 [4]): 7.8 µM
5 | COC(=O)CCNC1=C(C#N)C(=O)c2cccc3c(Sc4ccc(C)cc4)ccc1c23 | Active | 3.4 | 
6 | COC(=O)CCNC1=C(C#N)C(=O)c2cccc3c(Sc4ccc(C(C)(C)C)cc4)ccc1c23 | Active | > 20 | 
7 | N#CC1=C(NCCN2CCOCC2)c2ccc(SC3CCCCC3)c3cccc(c23)C1=O | Active | 1.8 | 

Further lines, with some results ahead:

Row | inhibition [1] | Compound | Ki [2] [µM] | also measured
8 | Active | CN(C)CCNC1=C(C#N)C(=O)c2cccc3c(SC4CCCCC4)ccc1c23 | 0.57 | Activity (BaF3): < 10%; EC50 [3]: 0.45 µM; EC50 (BV-173): 1.1 µM; Activity (HEK293): > 10%; EC50 (K562 [4]): 2.4 µM
9 | Active | COC(=O)CCNC1=C(C#N)C(=O)c2cccc3c(Sc4ccccc4)ccc1c23 | 4.5 | 
10 | Active | N#CC1=C(NCCN2CCN(Cc3ccccc3)CC2)c2ccc(SC3CCCCC3)c3cccc(c23)C1=O | > 20 | 
11 | Active | CCCCNC(=O)CCNC1=C(C#N)C(=O)c2cccc3c(SC4CCCCC4)ccc1c23 | 0.88 | 
12 | Active | CCNCCNC1=C(C#N)C(=O)c2cccc3c(SC4CCCCC4)ccc1c23 | 0.72 | 
13 | Active | N#CC1=C(NCCC(=O)NCc2ccccc2)c2ccc(SC3CCCCC3)c3cccc(c23)C1=O | 14.4 | 
